In patent US20240246943A1, “MULTIFACETED APPROACH TO NOVEL INTERLEUKIN-6 INHIBITORS” (UNIVERSITY OF FLORIDA RESEARCH FOUNDATION, INCORPORATED, priority 2021, published 2024):
Read-outs that look alike come from different tables or passages of the source. Marks after values point to notes of the source that are not given here.

How the values were obtained:
[1] = system: induced p-STAT1; test: Selectivity study, western blot, T47D cells, IFN stimulation; format: cell-based; details: T47D breast cancer cells, compound, then cytokine
Procedure: (§1) Cells were harvested and lysed in cold radioimmunoprecipitation assay (RIPA) lysis buffer containing proteasome inhibitor cocktail and phosphatase inhibitor cocktail. The protein concentrations were determined using the BCA Protein Assay kit. After adding the loading buffer and boiling at 95° C. for 10 minutes, equivalent amounts of proteins were loaded on and separated by SDS-PAGE, and then were transferred to PVDF membranes. Membranes were probed with primary antibodies (1:1000) against gp130 and GAPDH. Membranes were analyzed using Enhanced Chemiluminescence Plus reagents and either scanned with the Storm Scanner (Amersham Pharmacia Biotech, Inc., Piscataway, NJ) or imaged with ChemiDoc MP imaging system (Bio-Rad, Hercules, CA).
(§2) Inhibition of downstream STAT3 phosphorylation was performed. T47D breast cancer cells, which lack endogenous IL-6, were treated with LLM418-MCBu for 2 hours. Then, cytokine was administered for 30 minutes (IL-6, INF, LIF, or OSM). Western blot conducted afterwards to assess dose-dependent inhibition of IL-6 signaling (or lack thereof) (FIG. 5).

[2] = system: SUM159 breast cancer cells; test: MTT cell viability assay, SUM159; format: cell-based; details: 72 hours, Inactive = no measurable activity at 20 μM
Procedure: (§3) Cell viability of MDA-MB-231 breast cancer cells was evaluated by using the MTT assay in triple replicates in one experiment and repeated for three times (FIG. 3). MDA-MB-231 SUM159, SUM159 gp140ko, MDA-MB-231 breast cancer cells or SUM149 or HCC1937 BRCA mutant breast cancer cells were seeded in 96-well plates at a density of 3,000 cells per well. The cells were incubated at 37° C. for a period of 24 hours. Escalating concentrations of IL-6/gp130 inhibitors (e.g., compounds of Formula (A), (B), (C), (D), (E), or (F) including LLM-418, bazedoxifene, LS-28-3, and COMP-D (LS-101-D)) were added in triplicate to the plates in the presence of 10% FBS. After incubation for 72 hours (unless otherwise noted), a stock solution of MTT (0.5 mg/ml) was then added to each well containing the treated cells, followed by incubation at 37° C. for 3 h. After removal of medium, the MTT dye was dissolved with spectrophotometric grade DMSO and the absorbance was read at 570 nm. The IC50 value is determined by interpolation based on the absorbance value halfway between positive and negative controls.

[3] = system: MDA-MB-231 breast cancer cells; test: MTT cell viability assay, MDA-MB-231; format: cell-based; details: MTT; for IC50: Homo sapiens, MDA-MB-231, 72 hours, Inactive = no measurable activity at 20 μM
Procedure: as §3, with “MDA-MB-231 SUM159, SUM159 gp140ko, MDA-MB-231 breast cancer cells or SUM149 or HCC1937 BRCA mutant breast cancer cells were seeded in 96-well plates at a density of 3,000 cells per well.” left out

[4] = system: IL-6 induced p-STAT3; test: Selectivity study, western blot, T47D cells, IL-6 stimulation; format: cell-based; details: T47D breast cancer cells, compound 2 hours, then cytokine 30 minutes
Procedure: as §1, §2

[5] = system: MDA-MB-231 Bone Metastatic breast cancer cells; test: MTT cell viability assay, MDA-MB-231 Bone Metastatic; format: cell-based; details: Homo sapiens, 72 hours
Procedure: as §3, with “MDA-MB-231 SUM159, SUM159 gp140ko, MDA-MB-231 breast cancer cells or SUM149 or HCC1937 BRCA mutant breast cancer cells were seeded in 96-well plates at a density of 3,000 cells per well.” left out

[6] = system: LIF induced p-STAT3; test: Selectivity study, western blot, T47D cells, LIF stimulation; format: cell-based; details: T47D breast cancer cells, compound, then cytokine
Procedure: as §1, §2

[7] = system: SUM159 gp130ko breast cancer cells; test: MTT cell viability assay, SUM159 gp130ko; format: cell-based; details: SUM159, Table 1 batch studies, 72 hours, read-out: IC50 Values in Breast Cancer Cell Lines, SUM159 gp130ko
Procedure: as §3, with “MDA-MB-231 SUM159, SUM159 gp140ko, MDA-MB-231 breast cancer cells or SUM149 or HCC1937 BRCA mutant breast cancer cells were seeded in 96-well plates at a density of 3,000 cells per well.” left out

[8] = system: pSTAT3 in T47D cell line; test: pSTAT3 inhibition in T47D cell line (FIG. 8); format: cell-based; details: compound, then cytokine
Procedure: (§4) FIG. 8 depicts TNBC, BRCA-mutant, and T47D cells stimulated with LLM418-MCBU, then cytokine.
as §1

[9] = system: pSTAT3 in BRCA-mutant cell line; test: pSTAT3 inhibition in BRCA-mutant cell line (FIG. 8); format: cell-based; details: compound, then cytokine
Procedure: as §4, §1

[10] = system: HCC1937 BRCA-mutant TNBC cells; test: Cell viability, combination with PARP inhibitor talazoparib (FIG. 9); format: cell-based; details: LLM418-MCBU in combination with PARP inhibitor talazoparib
Excerpt: FIG. 9 depicts cell viability of HCC1937 BRCA-mutant TNBC cells treated with LLM418-MCBU and PARP inhibitor talazoparib.

[11] = system: pSTAT3 in TNBC cell line; test: pSTAT3 inhibition in TNBC cell line (FIG. 8); format: cell-based; details: compound, then cytokine
Procedure: as §4, §1

[12] = target: T1, gp130 (Homo sapiens, UniProt P40189); test: DARTS assay in MIAPaCa2 pancreatic cancer cell lysates; format: binding; details: 1:2000 pronase:protein, proteolysis 20 minutes; FIG. 2
T1 construct: endogenous in cells; host or cells: MDA-MB-231 breast cancer cells (RIPA lysate)
T1 sequence (P40189 23-918): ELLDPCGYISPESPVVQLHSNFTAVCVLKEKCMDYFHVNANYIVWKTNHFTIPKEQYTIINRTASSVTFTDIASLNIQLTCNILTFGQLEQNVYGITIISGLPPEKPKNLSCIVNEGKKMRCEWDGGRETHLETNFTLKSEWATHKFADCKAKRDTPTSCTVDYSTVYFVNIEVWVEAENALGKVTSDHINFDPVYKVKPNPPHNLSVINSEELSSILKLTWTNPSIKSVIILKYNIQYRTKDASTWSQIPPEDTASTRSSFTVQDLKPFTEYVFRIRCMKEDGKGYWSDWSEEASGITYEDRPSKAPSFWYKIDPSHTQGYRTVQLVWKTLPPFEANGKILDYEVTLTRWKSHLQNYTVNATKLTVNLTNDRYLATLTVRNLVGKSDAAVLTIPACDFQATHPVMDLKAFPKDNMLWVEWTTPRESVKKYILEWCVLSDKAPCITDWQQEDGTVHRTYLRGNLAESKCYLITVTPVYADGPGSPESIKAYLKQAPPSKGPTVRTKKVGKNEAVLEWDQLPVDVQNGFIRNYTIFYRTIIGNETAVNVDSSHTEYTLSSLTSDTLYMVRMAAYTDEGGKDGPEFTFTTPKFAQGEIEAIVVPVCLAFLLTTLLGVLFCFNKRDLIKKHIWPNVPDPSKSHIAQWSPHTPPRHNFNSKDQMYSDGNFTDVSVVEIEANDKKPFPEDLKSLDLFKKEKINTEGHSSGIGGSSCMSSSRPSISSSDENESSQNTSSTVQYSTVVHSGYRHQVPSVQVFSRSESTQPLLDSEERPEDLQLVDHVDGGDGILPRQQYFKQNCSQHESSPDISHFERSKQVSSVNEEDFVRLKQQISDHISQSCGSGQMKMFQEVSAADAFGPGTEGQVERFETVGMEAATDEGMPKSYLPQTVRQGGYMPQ
Procedure: as §1
(§5) MDA-MB-231 breast cancer cells or MIAPaCa2 pancreatic cancer cells were lysed in cold radioimmunoprecipitation assay (RIPA) lysis buffer containing proteasome inhibitor cocktail and phosphatase inhibitor cocktail. Then lysates were incubated with escalating concentrations (10-1000 μM) of LS-28-3 or bazedoxifene at room temperature for 1 h. Proteolysis was followed by adding protease pronase solution at a ratio of 1 mg of pronase to 1000 mg (or 2000 mg) of lysate protein for 20 min at room temperature. […] The resulted protein samples were separated by 8% SDS-PAGE gel and analyzed by western blotting. […]

[13] = target: T1, gp130; test: DARTS assay in MDA-MB-231 breast cancer cell lysates; format: binding; details: 1:2000 pronase:protein, proteolysis 20 minutes; FIG. 1
Procedure: as §1, §5

[14] = SUM159, Table 1 batch studies, read-out: IC50 Values in Breast Cancer Cell Lines, SUM159
[15] = SUM159, Table 3 batch studies (independent from Table 1), read-out: SUM159 IC50
[16] = Table 1 batch studies, read-out: IC50 Values in Breast Cancer Cell Lines, MDA-MB-231
[17] = Table 3 batch studies (independent from Table 1), read-out: MDA-MB-231 IC50
[18] = MDA-MB-231, Table 1 batch studies, read-out: IC50 Values in Breast Cancer Cell Lines, MDA-MB-231 Bone Metastatic
[19] = MDA-MB-231, Table 3 batch studies (independent from Table 1), read-out: MDA-MB-231 Bone Metastatic IC50

Structure (SMILES)	Inhibition of IFN-7 induced p-STAT1 [1]	IC50 [2, 14] [µM]	IC50 [2, 15] [µM]	IC50 [3, 16] [µM]	IC50 [3, 17] [µM]	Inhibition of IL-6 induced p-STAT3 [4]	IC50 [5, 18] [µM]	IC50 [5, 19] [µM]	IC50 [7] [µM]	also measured
O=C(Nc1ccccc1-c1ccn(C2CCC2)n1)c1ccc(OCCN2CCCCC2)cc1 [LLM418-CBU, N-(2-(1-cyclobutyl-1H-pyrazol-3-yl)phenyl)-4-(2-(piperidin-1-yl)ethoxy)benzamide]	also inhibits IFN-7 induced p-STAT1	5.9	15.1	49.7	30.1	inhibits IL-6 induced p-STAT3	11.8	21.1	16.1	Inhibition of LIF induced p-STAT3 [6]: also inhibits
O=C(Nc1ccccc1-c1ccn(CC2CCC2)n1)c1ccc(OCCN2CCCCC2)cc1 [LLM418-MCBu, N-(2-(1-(cyclobutylmethyl)-1H-pyrazol-3-yl)phenyl)-4-(2-(piperidin-1-yl)ethoxy)benzamide]	–	10.5	10.5	18.5	18.5	inhibited IL-6 selectively in a dose-dependent manner	7.3	7.3	13.9	Inhibition of pSTAT3, T47D cell line [8]: inhibits pSTAT3; Inhibition of pSTAT3, BRCA-mutant cell line [9]: inhibits pSTAT3; CI (synergy in inhibiting cell viability) [10]: < 1.0; Inhibition of IL-6 induced p-STAT3 ([4]; listed as LLM418-MCBU): selectively inhibits IL-6 induced p-STAT3; Inhibition of pSTAT3, TNBC cell line [11]: inhibits pSTAT3
CC(C)n1ccc(-c2ccccc2NC(=O)c2ccc(OCCN3CCCCC3)cc2)n1 [LLM418-iPR, N-(2-(1-isopropyl-1H-pyrazol-3-yl)phenyl)-4-(2-(piperidin-1-yl)ethoxy)benzamide]	inhibit both IL-6 induced p-STAT3 and IFN-7 induced p-STAT1	9.1	9.1	19	19	inhibit both IL-6 induced p-STAT3 and IFN-7 induced p-STAT1	–	29.7	12.1	–
CC(C)[C@H]1COC(=O)N1c1ccc(C(=O)Nc2cccc(-c3cc[nH]n3)c2)cc1 [LS-28-3, (S)—N-(3-(1H-pyrazol-3-yl)phenyl)-4-(4-isopropyl-2-oxooxazolidin-3-yl)benzamide]	–	–	–	–	–	–	–	–	–	IC50 Values in Breast Cancer Cell Lines, SUM159 ([2]; Table 1 batch studies): Inactive; SUM159 IC50 ([2]; Table 3 batch studies (independent from Table 1)): Inactive; Percent cells remaining after treatment with 10 μM compound, MDA-MB-231 ([3]; Table 1 batch studies): 88%***; Percent cells remaining after treatment with 10 μM compound, MDA-MB-231 ([3]; Table 3 batch studies): 88%***; Binding to gp130 (protection from pronase proteolysis), MIAPaCA2 lysates [12]: showed direct binding to gp130; Binding to gp130 (protection from pronase proteolysis), MDA-MB-231 lysates [13]: showed direct binding to gp130
